Values of other authors in patent US20180148781A1, “Antioxidant Compounds For Cleave Formulations That Support Long Reads In Sequencing-By-Synthesis” (QIAGEN Waltham, Inc., priority 2016, published 2018).

Conditions: pH 7.4

Compound: O=C1O[C@H]([C@@H](O)CO)C(O)=C1O [Ascorbic Acid]
- fraction present in mono-anionic form as ascorbate: 99.95%
